Source: patent publication US6265376A, “Insecticidal plectoxins from plectreurys tristis” (Novartis AG, priority 1995, dated 2001)

What was measured:
H. virescens = assay: Injection of plectoxins into insect larvae (toxicity); format: in vivo, Heliothis virescens
Description: (§1) Polypeptides isolated from or those showing substantial homology to those isolated from the venom of Plectreurys tristis are useful as insecticidal agents. In particular, they are useful insecticidal agents against insects of the order Lepidoptera, for example, Heliothis virescens, Autographa californica, and the insects of the genus Spodoptera. Both the purified plectoxin and viruses transformed to produce the plectoxin are assayed for bioactivity on larvae including: tobacco hornworms (Manduca sexta), tobacco budworms (Heliothis virescens) and beet armyworm (Spodoptera exizua).
(§2) Venom from P. tristis is obtained from Spider Pharm, Black Canyon City, Az. Crude venom (approximately 200 μl per injection) is fractionated by reversed-phase liquid chromatography (LC) using the following conditions: a Perkin Elmer Model 410 Bio solvent delivery system; 5 ml injection loop; Hewlett Packard Model 1040M diode array detector at 220 and 280 nm; Aquapore ODS column, 22×1 cm (Brownlee Labs, Santa Clara, Calif.); 4.5 ml/min; acetonitrile (MeCN) in a constant 0.1% trifluoroacetic acid, 0% MeCN for 5 min, then linear gradient of 0 to 60% MeCN over 55 min. Similar fractions from several runs are combined and portions are removed for bioassays. […]

M. sexta = assay: as above; format: in vivo, Manduca sexta
Description: as §1, §2

S. exigua = assay: as above; format: in vivo, Spodoptera exigua
Description: as §1
Various plectoxins isolated from venom are injected into three different insect larvae. […] ED50 is the dose which is effective to paralyze 50% of the larvae at one hour. Values with an asterisk denote duplicate analysis with samples from different milking lots.

insects = assay: Insect toxicity (paralysis and/or death of test larvae), general statements; format: in vivo; details: injection of a number of different insects
Description: as §1

[1] = dose paralyzing 50% of larvae at one hour
[2] = lethal dose for 50% of treated larvae at 24 hours

Plt-VI (AVKCIGWQETCNGNLPCCNECVMCECNIMGQNCRCNHPKATNECES)
ED50 (H. virescens; [1]): 0.21 µg/g | LD50 (H. virescens; [2]): 1.2 µg/g | ED50 (M. sexta; [1]): 0.10 µg/g | LD50 (M. sexta; [2]): 0.15 µg/g | ED50 (S. exigua; [1]): 0.32 µg/g | LD50 (S. exigua; [2]): > 10 µg/g | paralytic activity upon injection (insects): very high level of paralytic activity
